Data taken from PMC8840742 (Molecules, 2022).
Like-named read-outs stand apart in the source and are kept apart here.

Assays:
SARS-CoV-2 [1] = details: for SI (CC50/EC50) / anti-SARS-CoV-2 activity in words: VeroE6 cells; for anti-SARS-CoV-2 activity in words: SAR discussion; for potency loss / fold less active relative to compound 8 (SARS-CoV-2): relative to compound 8, VeroE6
SARS-CoV-2 [2] = experiment: microbe, parasite or virus in culture; details: Severe acute respiratory syndrome coronavirus 2, 96 h, read-out: SARS-CoV-2 EC50
in vitro [3] = details: African green monkey
[4] = Cytotoxicity in mock-infected VeroE6 cells (MTS assay); details: African green monkey
MERS-CoV = experiment: microbe, parasite or virus in culture; assay type: cell-based; details: Middle East respiratory syndrome-related coronavirus, Huh-7, 42 h, read-out: MERS EC50
SARS-CoV-2 Mpro = SARS-CoV-2 Mpro (Severe acute respiratory syndrome coronavirus 2, UniProt P0DTD1); experiment: SARS-CoV-2 main protease (Mpro) FRET assay; assay type: biochemical; details: highest tested concentration of 100 µM
Method: Compounds were tested in a Förster resonance energy transfer (FRET) assay for inhibition of the SARS-CoV-2 Mpro. The peptide Dabcyl-KTSAVLQ↓SGFRKM-E(Edans)-NH2 (Biosyntan, Berlin, Germany) (↓ indicates the cleavage site), corresponding to the P7–P6′ residues of the nsp4–nsp5 processing site of the viral polyprotein pp1a/pp1ab, was used as the substrate. Quenching of the Edans fluorescence by the Dabcyl residue was eliminated after cleavage of the scissile bond between P1-Gln and P1′-Ser and the difference in fluorescence emission was measured with a Tecan Spark fluorescence plate reader, operated at an excitation wavelength of 360 nm and an emission wavelength of 460 nm.
Candidate compounds were kept in a DMSO stock solution; the Mpro was in a buffer containing 20 mM HEPES, 120 mM NaCl, 0.4 mM EDTA, 20% glycerol, pH 7.0. DTT (4 mM) was added to the buffer prior to running the assay. Following incubation of 50 nM SARS-CoV-2 Mpro with 100 µM of the candidate compound for 10 min at 37 °C, the reaction was initiated by the addition of 10 µM of the FRET substrate to each well. The final DMSO concentration was <2%.

SARS-CoV-1 = experiment: microbe, parasite or virus in culture; assay type: cell-based; details: Severe acute respiratory syndrome coronavirus, Vero C1008, read-out: SARS-CoV-1 EC50
in vitro [5] = details: human
[6] = tested on: SARS-CoV-2 spike pseudotyped VSV; experiment: organism not typed; assay type: cell-based; details: Vero C1008, 24 h, read-out: SARS-CoV-2 pseudovirus neutralization EC50 (block of virus entry)
[7] = tested on: MERS-CoV spike pseudotyped VSV; experiment: organism not typed; assay type: cell-based; details: Vero C1008, 24 h, read-out: MERS pseudovirus neutralization EC50 (block of virus entry)
[8] = molecular target: SARS-CoV-2 nsp14 (N7-methyltransferase activity) (Severe acute respiratory syndrome coronavirus 2, UniProt P0DTD1); experiment: Nsp14 RapidFire MS assay; assay type: biochemical; details: highest tested concentration of 100 µM
Chikungunya virus = Chikungunya virus antiviral assay in Vero A cells; details: read-out: Chikungunya virus EC50
cathepsin B = cathepsin B (Homo sapiens, UniProt P07858); experiment: Cathepsin B inhibition; assay type: biochemical; details: human protease involved in SARS-CoV-2 entry
cathepsin L = cathepsin L (Homo sapiens, UniProt P07711); experiment: Cathepsin L inhibition; assay type: biochemical; details: human protease involved in SARS-CoV-2 entry
Sequence of cathepsin L (P07711 114-333): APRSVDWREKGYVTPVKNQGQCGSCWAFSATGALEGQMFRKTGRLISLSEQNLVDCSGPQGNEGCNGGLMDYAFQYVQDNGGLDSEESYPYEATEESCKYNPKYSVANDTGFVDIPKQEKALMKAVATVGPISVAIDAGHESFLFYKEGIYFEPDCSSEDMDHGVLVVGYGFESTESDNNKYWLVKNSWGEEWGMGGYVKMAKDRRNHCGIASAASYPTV

[9] = molecular target: SARS-CoV-2 replication–transcription complex (Severe acute respiratory syndrome coronavirus 2, UniProt P0DTD1); experiment: SARS-CoV-2 polymerase assay; assay type: biochemical; details: highest tested concentration of 100 µM
VeroE6 cells = experiment: Cytotoxicity in mock-infected VeroE6 cells (MTS assay); details: read-out: MTS CC50; mock-infected VeroE6 cells, MTS assay

Row | Compound | SI (CC50/EC50) (SARS-CoV-2 [1]) | EC50 (SARS-CoV-2 [2]) | CC50 (in vitro [3]) | also measured
1 | c1ccc(-c2noc(-c3ccccc3OC3CCN(C4CCCC4)C3)n2)cc1 (stereo not drawn) [Compound 26, 5-[2-(1-Cyclopentylpyrrolidin-3-yl)oxyphenyl]-3-phenyl-1,2,4-oxadiazole] | <1 | > 50 µM | 9 ± 2.5 µM | anti-SARS-CoV-2 activity in words (SARS-CoV-2 [1]): showed only cytotoxicity
2 | c1ccc(-c2nc(-c3ccncc3)no2)c(OCC2CCN(C3CCCC3)C2)c1 (stereo not drawn) [Compound 10, 5-[2-[(1-Cyclopentylpyrrolidin-3-yl)methoxy]phenyl]-3-(4-pyridyl)-1,2,4-oxadiazole] | 15.9 | 1.7 ± 0.3 µM | 27 ± 6 µM | 
3 | c1ccc(-c2nc(-c3ccncc3)no2)c(OC2CCN(CC3CCCC3)C2)c1 (stereo not drawn) [Compound 9, 5-[2-[1-(Cyclopentylmethyl)pyrrolidin-3-yl]oxyphenyl]-3-(4-pyridyl)-1,2,4-oxadiazole] | 15 | 1.6 ± 0.8 µM | 24 ± 8 µM | 
4 | CN(CCOc1ccccc1-c1nc(-c2ccncc2)no1)C1CCCC1 [Compound 14, N-Methyl-N-[2-[2-[3-(4-pyridyl)-1,2,4-oxadiazol-5-yl]phenoxy]ethyl]cyclopentanamine] | 4.4 | 8.5 ± 4 µM | 37 ± 11 µM | 
5 | Cc1cnccc1-c1noc(-c2ccccc2OC2CCN(C3CCCC3)C2)n1 (stereo not drawn) [Compound 31, 5-[2-(1-Cyclopentylpyrrolidin-3-yl)oxyphenyl]-3-(3-methyl-4-pyridyl)-1,2,4-oxadiazole] |  | 1.8 ± 0.3 µM | 18 ± 9 µM | 
6 | c1ccc(-c2nnc(-c3ccncc3)o2)c(OC2CCN(C3CCCC3)C2)c1 (stereo not drawn) [Compound 38, 2-[2-(1-Cyclopentylpyrrolidin-3-yl)oxyphenyl]-5-(4-pyridyl)-1,3,4-oxadiazole] | 3.1 | 15 ± 3 µM | 47 ± 15 µM | potency loss / fold less active relative to compound 8 (SARS-CoV-2) (SARS-CoV-2 [1]): 3 fold
7 | c1ccc(-c2nc(-c3ccncc3)no2)c(OCC2CCN(CC3CCCC3)C2)c1 (stereo not drawn) [Compound 11, 5-[2-[[1-(Cyclopentylmethyl)pyrrolidin-3-yl]methoxy]phenyl]-3-(4-pyridyl)-1,2,4-oxadiazole] |  | 40 ± 14 µM | > 50 µM | fold less active than compound 10 (SARS-CoV-2) (SARS-CoV-2 [1]; relative to compound 10, VeroE6): 20 fold
8 | c1ccc(-c2nc(-c3ccncc3)no2)c(OC2CCN(C3CCCC3)CC2)c1 [Compound 12, 5-[2-[(1-Cyclopentyl-4-piperidyl)oxy]phenyl]-3-(4-pyridyl)-1,2,4-oxadiazole] | 27.1 | 1.7 ± 0.5 µM | 46 ± 18 µM | 
9 | c1ccc(-c2nc(-c3ccnnc3)no2)c(OC2CCN(C3CCCC3)C2)c1 (stereo not drawn) [Compound 25, 5-[2-(1-Cyclopentylpyrrolidin-3-yl)oxyphenyl]-3-pyridazin-4-yl-1,2,4-oxadiazole] |  | > 50 µM | > 50 µM | potency loss / fold less active relative to compound 8 (SARS-CoV-2) (SARS-CoV-2 [1]): more than 10 fold
10 | c1ccc(-c2nc(-c3ccncc3)no2)c(OC2CCN(C3CCCC3)C2)c1 (stereo not drawn) [Compound 8, 5-[2-(1-Cyclopentylpyrrolidin-3-yl)oxyphenyl]-3-(4-pyridyl)-1,2,4-oxadiazole] | 7.6 | 5.4 ± 3.5 µM | 41 ± 25 µM | 
11 | c1ccc(-c2nc(-c3ccncc3)ns2)c(OC2CCN(C3CCCC3)C2)c1 (stereo not drawn) [Compound 46, 5-[2-(1-Cyclopentylpyrrolidin-3-yl)oxyphenyl]-3-(4-pyridyl)-1,2,4-thiadiazole] | 6.5 | 2.3 ± 0.4 µM |  | CC50 [4]: 15 ± 1 µM
12 | COc1ccc(-c2noc(-c3ccccc3OC3CCN(C4CCCC4)C3)n2)cn1 (stereo not drawn) [Compound 27, 5-[2-(1-Cyclopentylpyrrolidin-3-yl)oxyphenyl]-3-(6-methoxy-3-pyridyl)-1,2,4-oxadiazole] | 4.9 | 4.1 ± 2.2 µM | 20 ± 5.5 µM | 
13 | c1ccc(CCN2CC[C@@H](Oc3ccccc3-c3nc(-c4ccncc4)no3)C2)cc1 [Compound 1a, 5-[2-[(3R)-1-(2-Phenylethyl)pyrrolidin-3-yl]oxyphenyl]-3-(4-pyridyl)-1,2,4-oxadiazole] | 8.1 | 3.6 ± 1.8 µM | 29 ± 24 µM | 
14 | c1ccc(CCN2CC[C@H](Oc3ccccc3-c3nc(-c4ccncc4)no3)C2)cc1 [Compound 1b, 5-[2-[(3S)-1-(2-Phenylethyl)pyrrolidin-3-yl]oxyphenyl]-3-(4-pyridyl)-1,2,4-oxadiazole] | 12.8 | 1.4 ± 0.1 µM | 18 ± 11 µM | 
15 | N#C[C@@]1(c2ccc3c(N)ncnn23)O[C@H](CO)[C@@H](O)[C@H]1O [GS-441524, reference compound] |  | 0.82 µM |  | 
16 | FC(F)(F)c1cncc(-c2noc(-c3ccccc3OC3CCN(C4CCCC4)C3)n2)c1 (stereo not drawn) [Compound 28, 5-[2-(1-Cyclopentylpyrrolidin-3-yl)oxyphenyl]-3-[5-(trifluoromethyl)-3-pyridyl]-1,2,4-oxadiazole] | 4.8 | 2.1 ± 0.1 µM | 10 ± 1 µM | 
17 | c1ccc(CCN2CCC(Oc3ccccc3-c3nc(-c4ccncc4)no3)C2)cc1 (stereo not drawn) [Compound 1, 5-(2-((1-Phenethylpyrrolidin-3-yl)oxy)phenyl)-3-(pyridin-4-yl)-1,2,4-oxadiazole] | 4.5 | 4.7 ± 3 µM | 21 ± 11 µM | EC50 (MERS-CoV): 5 µM; inhibitory activity on SARS-CoV-2 Mpro (SARS-CoV-2 Mpro): did not show any inhibitory activity; EC50 (SARS-CoV-1): 4.2 ± 0.2 µM; CC50 (in vitro [5]): > 20 µM; EC50 [6]: 1.25 µM; EC50 [7]: 3.4 µM; inhibitory activity on SARS-CoV-2 nsp14 (N7-methyltransferase activity) [8]: did not show any inhibitory activity; EC50 (Chikungunya virus): > 100 µM; activity against cathepsin B (cathepsin B): inactive; activity against cathepsin L (cathepsin L): inactive; inhibitory activity on SARS-CoV-2 replication–transcription complex [9]: did not show any inhibitory activity
18 | c1ccc(-c2noc(-c3ccncc3)n2)c(OC2CCN(C3CCCC3)C2)c1 (stereo not drawn) [Compound 35, 3-[2-(1-Cyclopentylpyrrolidin-3-yl)oxyphenyl]-5-(4-pyridyl)-1,2,4-oxadiazole] | 4.8 | 6.2 ± 2.7 µM | 30 ± 12 µM | 
19 | 5-[2-(1-Cyclopentylpyrrolidin-3-yl)oxyphenyl]-3-(4-pyridyl)-1,2,4-thiadiazole [Compound 49] | 2.6 |  |  | EC50 (SARS-CoV-2 [1]; read-out: SARS-CoV-2 EC50): 5.4 ± 2.1 µM; CC50 (VeroE6 cells): 14 ± 1 µM
20 | FC(F)(F)c1ccncc1-c1noc(-c2ccccc2OC2CCN(C3CCCC3)C2)n1 (stereo not drawn) [Compound 29, 5-[2-(1-Cyclopentylpyrrolidin-3-yl)oxyphenyl]-3-[4-(trifluoromethyl)-3-pyridyl]-1,2,4-oxadiazole] | 8.4 | 3.1 ± 1.3 µM | 26 ± 7 µM | 
21 | Cc1ccncc1-c1noc(-c2ccccc2OC2CCN(C3CCCC3)C2)n1 (stereo not drawn) [Compound 30, 5-[2-(1-Cyclopentylpyrrolidin-3-yl)oxyphenyl]-3-(4-methyl-3-pyridyl)-1,2,4-oxadiazole] | 33.6 | 1.4 ± 1 µM | 47 ± 1 µM | 
22 | c1cncc(-c2noc(-c3ccccc3OC3CCN(C4CCCC4)C3)n2)c1 (stereo not drawn) [Compound 23, 5-[2-(1-Cyclopentylpyrrolidin-3-yl)oxyphenyl]-3-(3-pyridyl)-1,2,4-oxadiazole] | >6 | 8.4 ± 5.7 µM | > 50 µM | anti-SARS-CoV-2 activity in words (SARS-CoV-2 [1]): equipotent to 8
23 | c1ccc(-c2nc(-c3cncnc3)no2)c(OC2CCN(C3CCCC3)C2)c1 (stereo not drawn) [Compound 24, 5-[2-(1-Cyclopentylpyrrolidin-3-yl)oxyphenyl]-3-pyrimidin-5-yl-1,2,4-oxadiazole] | >3.3 | 15 ± 2 µM | > 50 µM | potency loss / fold less active relative to compound 8 (SARS-CoV-2) (SARS-CoV-2 [1]): 3 fold
24 | c1ccc(-c2nc(-c3ccncc3)no2)c(OCCNC2CCCC2)c1 [Compound 13, N-[2-[2-[3-(4-Pyridyl)-1,2,4-oxadiazol-5-yl]phenoxy]ethyl]cyclopentanamine] | 5.5 | 8.4 ± 2.5 µM | 46 ± 13 µM | 
